Measured values: patent publication EP4711369A1, “1H-[1,2,3]TRIAZOLO[4,5-H]QUINAZOLINE COMPOUNDS AS PROTEIN KINASE INHIBITORS” (Chengdu Cynogen Bio-Pharmaceutical Technology Co., Ltd., priority 2023, dated 2024)
Where two headings read alike, the source gives them in different places.

Key:
CDK2/cyclin E = CDK2/cyclin E (Homo sapiens, UniProt P24941); assay: Assay of kinase activity (ADP-Glo); assay type: biochemical; settings: kinase inhibitory activity, read-out: CDK2/E1 IC50
Method: (§1) CDK/cyclin catalyzes the phosphorylation of a substrate, which concomitantly consumes ATP and produces ADP. The inhibition rate (%) in the presence of a small molecule inhibitor was assessed by measuring the amount of ADP generated in the reaction. The assay compounds were thoroughly mixed by vortexing and then diluted in DMSO to 100× the assay concentration. […] A 2× kinase solution was prepared using a 1× kinase reaction buffer (50 mM Hepes, 10 mM MgCl2, 0.01% Brij35, 2 mM DTT). 2 µL of the kinase solution was transferred to the 384-well assay plate, and the plate was centrifuged at 1000 rpm for 60 seconds in a microplate centrifuge. The plate was incubated at 25 °C in a biochemical incubator for 10 minutes. A 2x mixture of substrate and ATP was prepared in the kinase reaction buffer. Then, 2 µL of the mixture of substrate and ATP was added to the 384-well assay plate. The plate was centrifuged at 1000 rpm for 60 seconds in a microplate centrifuge, and incubated at 25 °C in a biochemical incubator for 60 minutes. 4 µL of ADP-Glo Reagent (Cat. No. V9103, manufacturer: Promega) incubated at 25 °C in a biochemical incubator was added to each well of the 384-well assay plate. The plate was centrifuged at 1000 rpm for 60 seconds in a microplate centrifuge, and incubated at 25 °C in a biochemical incubator for 40 minutes. 8 µL of Detection Reagent incubated at 25 °C in a biochemical incubator was added to each well of the 384-well assay plate. The plate was centrifuged at 1000 rpm for 60 seconds in a microplate centrifuge, and incubated at 25 °C in a biochemical incubator for 40 minutes. Finally, luminescence signals were read using a multifunctional microplate reader (model: PHERAstar FSX, manufacturer: BMG). IC50 values were calculated by nonlinear fitting of the concentration-response curves using GraphPad Prism software.

CDK4/cyclin D1 = CDK4/cyclin D1 (Homo sapiens, UniProt P11802); assay: Assay of kinase activity (ADP-Glo); assay type: biochemical; settings: kinase inhibitory activity
Method: as §1

CDK6/cyclin D3 = CDK6/cyclin D3 (Homo sapiens, UniProt Q00534); assay: Assay of kinase activity (ADP-Glo); assay type: biochemical; settings: kinase inhibitory activity
Method: (§2) CDK/cyclin catalyzes the phosphorylation of a substrate, which concomitantly consumes ATP and produces ADP. The inhibition rate (%) in the presence of a small molecule inhibitor was assessed by measuring the amount of ADP generated in the reaction. The assay compounds were thoroughly mixed by vortexing and then diluted in DMSO to 100× the assay concentration. 40 nL of a compound was transferred to a 384-well assay plate using a nanoliter pipetting system (ECHO® 655 SYSTEM). A 2× kinase solution was prepared using a 1× kinase reaction buffer (50 mM Hepes, 10 mM MgCl2, 0.01% Brij35, 2 mM DTT). 2 µL of the kinase solution was transferred to the 384-well assay plate, and the plate was centrifuged at 1000 rpm for 60 seconds in a microplate centrifuge. The plate was incubated at 25 °C in a biochemical incubator for 10 minutes. A 2x mixture of substrate and ATP was prepared in the kinase reaction buffer. Then, 2 µL of the mixture of substrate and ATP was added to the 384-well assay plate. The plate was centrifuged at 1000 rpm for 60 seconds in a microplate centrifuge, and incubated at 25 °C in a biochemical incubator for 60 minutes. 4 µL of ADP-Glo Reagent (Cat. No. V9103, manufacturer: Promega) incubated at 25 °C in a biochemical incubator was added to each well of the 384-well assay plate. The plate was centrifuged at 1000 rpm for 60 seconds in a microplate centrifuge, and incubated at 25 °C in a biochemical incubator for 40 minutes. 8 µL of Detection Reagent incubated at 25 °C in a biochemical incubator was added to each well of the 384-well assay plate. The plate was centrifuged at 1000 rpm for 60 seconds in a microplate centrifuge, and incubated at 25 °C in a biochemical incubator for 40 minutes. Finally, luminescence signals were read using a multifunctional microplate reader (model: PHERAstar FSX, manufacturer: BMG). IC50 values were calculated by nonlinear fitting of the concentration-response curves using GraphPad Prism software.

[1] = tested on: human acute myeloid leukemia MV-4-11 cells; assay: Assay of cell proliferation (CellTiter-Glo); assay type: cell-based; settings: MV4-11, 144 h, 6 days, read-out: MV-4-11 IC50 of cell proliferation inhibitory activity
Method: (§3) Human ovarian cancer OVCAR3 cells were inoculated at 2000 cells/well in a 96-well plate and cultured in RPMI 1640 medium containing 20% FBS at 37 °C and 5% CO2 overnight in an incubator. The next day, the compounds were subjected to a three-fold gradient dilution in DMSO from a peak concentration of 2 mM to give nine concentrations. Then, the compounds were diluted 3:200 in growth medium, and finally diluted 1:3 in the cell culture supernatant to give a culture supernatant containing 0.5% DMSO, with the compounds treatment concentrations ranging from 10 µM to 0.1 nM. The cells and the compounds were incubated at 37 °C and 5% CO2 for 6 days. Then, cell proliferation assay was performed using the CellTiter-Glo (manufacturer: Promega, Cat. No. G9242), and luminescence signals were read using a multifunctional microplate reader (model: Synergy H1, manufacturer: BiotTek). IC50 values were calculated by fitting of the concentration-response curves with a four-parameter analysis method using GraphPad Prism software.
(§4) The cell proliferation assays of human colon cancer HCT-116 cells, human breast cancer MCF-7 cells, human breast cancer HCC1806 cells, human acute myeloid leukemia MV-4-11 cells, and human gastric cancer MKN1 cells were performed according to the same method, with different inoculation densities set according to different cell growth characteristics.

[2] = tested on: human breast cancer HCC1806 cells; assay: Assay of cell proliferation (CellTiter-Glo); assay type: cell-based; settings: 6 days, read-out: HCC1806 IC50 of cell proliferation inhibitory activity
Method: as §3, §4

[3] = tested on: human gastric cancer MKN1 cells; assay: Assay of cell proliferation (CellTiter-Glo); assay type: cell-based; settings: read-out: MKN1 IC50 of cell proliferation inhibitory activity
Method: as §3, §4

[4] = tested on: Human ovarian cancer OVCAR3 cells; assay: Assay of cell proliferation (CellTiter-Glo); assay type: cell-based; settings: 6 days, read-out: OVCAR3 IC50 of cell proliferation inhibitory activity
Method: as §3

CDK9/cyclin T1 = CDK9/cyclin T1 (Homo sapiens, UniProt P50750); assay: Assay of kinase activity (ADP-Glo); assay type: biochemical; settings: kinase inhibitory activity
Method: as §2

[5] = Homo sapiens, MKN-1, 144 h, MNK1, 6 days

CDK4/cyclin D1, sequence (P11802 whole entry, species assumed): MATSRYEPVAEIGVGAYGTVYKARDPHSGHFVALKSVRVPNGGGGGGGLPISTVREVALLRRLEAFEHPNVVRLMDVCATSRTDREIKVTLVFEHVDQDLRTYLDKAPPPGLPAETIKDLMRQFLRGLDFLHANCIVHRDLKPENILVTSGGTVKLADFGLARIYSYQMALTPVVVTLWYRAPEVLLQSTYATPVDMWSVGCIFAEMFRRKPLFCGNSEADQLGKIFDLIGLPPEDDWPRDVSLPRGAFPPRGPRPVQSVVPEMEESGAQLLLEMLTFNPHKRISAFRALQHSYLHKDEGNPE
CDK4/cyclin D1, sequence (P24385 whole entry partner, species assumed): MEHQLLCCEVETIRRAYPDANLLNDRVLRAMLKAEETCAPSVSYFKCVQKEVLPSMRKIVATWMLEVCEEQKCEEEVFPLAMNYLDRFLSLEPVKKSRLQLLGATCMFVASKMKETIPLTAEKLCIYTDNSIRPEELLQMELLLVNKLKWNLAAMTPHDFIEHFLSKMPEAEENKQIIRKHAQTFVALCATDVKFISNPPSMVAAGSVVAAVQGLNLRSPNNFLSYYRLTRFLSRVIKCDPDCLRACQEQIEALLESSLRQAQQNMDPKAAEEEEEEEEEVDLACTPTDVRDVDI
CDK6/cyclin D3, sequence (Q00534 whole entry, species assumed): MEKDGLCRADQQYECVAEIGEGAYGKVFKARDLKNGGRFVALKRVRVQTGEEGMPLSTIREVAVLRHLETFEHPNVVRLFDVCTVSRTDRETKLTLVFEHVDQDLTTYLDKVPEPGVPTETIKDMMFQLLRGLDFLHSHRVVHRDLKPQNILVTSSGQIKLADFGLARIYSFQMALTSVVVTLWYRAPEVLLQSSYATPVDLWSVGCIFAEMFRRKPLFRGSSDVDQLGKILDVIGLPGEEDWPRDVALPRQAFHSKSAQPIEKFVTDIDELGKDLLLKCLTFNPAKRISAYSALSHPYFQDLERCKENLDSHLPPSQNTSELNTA
CDK6/cyclin D3, sequence (P30281 whole entry partner, species assumed): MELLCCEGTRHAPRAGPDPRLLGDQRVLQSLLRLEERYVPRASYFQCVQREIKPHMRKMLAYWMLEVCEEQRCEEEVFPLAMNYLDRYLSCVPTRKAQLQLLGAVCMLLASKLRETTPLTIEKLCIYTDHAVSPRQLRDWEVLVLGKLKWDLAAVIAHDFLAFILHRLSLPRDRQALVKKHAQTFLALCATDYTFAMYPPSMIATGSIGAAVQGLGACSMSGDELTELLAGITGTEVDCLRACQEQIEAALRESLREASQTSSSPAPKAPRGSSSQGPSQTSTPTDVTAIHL
CDK9/cyclin T1, sequence (P50750 whole entry, species assumed): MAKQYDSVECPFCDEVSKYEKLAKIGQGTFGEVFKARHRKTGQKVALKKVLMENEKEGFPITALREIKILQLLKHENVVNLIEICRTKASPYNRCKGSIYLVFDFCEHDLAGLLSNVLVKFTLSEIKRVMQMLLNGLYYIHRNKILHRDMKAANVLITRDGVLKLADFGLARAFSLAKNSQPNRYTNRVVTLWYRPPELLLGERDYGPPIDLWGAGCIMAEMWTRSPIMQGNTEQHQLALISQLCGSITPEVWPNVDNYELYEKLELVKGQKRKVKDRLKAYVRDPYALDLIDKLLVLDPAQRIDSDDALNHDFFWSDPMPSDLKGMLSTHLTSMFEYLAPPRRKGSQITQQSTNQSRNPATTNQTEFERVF
CDK9/cyclin T1, sequence (O60563 whole entry partner, species assumed): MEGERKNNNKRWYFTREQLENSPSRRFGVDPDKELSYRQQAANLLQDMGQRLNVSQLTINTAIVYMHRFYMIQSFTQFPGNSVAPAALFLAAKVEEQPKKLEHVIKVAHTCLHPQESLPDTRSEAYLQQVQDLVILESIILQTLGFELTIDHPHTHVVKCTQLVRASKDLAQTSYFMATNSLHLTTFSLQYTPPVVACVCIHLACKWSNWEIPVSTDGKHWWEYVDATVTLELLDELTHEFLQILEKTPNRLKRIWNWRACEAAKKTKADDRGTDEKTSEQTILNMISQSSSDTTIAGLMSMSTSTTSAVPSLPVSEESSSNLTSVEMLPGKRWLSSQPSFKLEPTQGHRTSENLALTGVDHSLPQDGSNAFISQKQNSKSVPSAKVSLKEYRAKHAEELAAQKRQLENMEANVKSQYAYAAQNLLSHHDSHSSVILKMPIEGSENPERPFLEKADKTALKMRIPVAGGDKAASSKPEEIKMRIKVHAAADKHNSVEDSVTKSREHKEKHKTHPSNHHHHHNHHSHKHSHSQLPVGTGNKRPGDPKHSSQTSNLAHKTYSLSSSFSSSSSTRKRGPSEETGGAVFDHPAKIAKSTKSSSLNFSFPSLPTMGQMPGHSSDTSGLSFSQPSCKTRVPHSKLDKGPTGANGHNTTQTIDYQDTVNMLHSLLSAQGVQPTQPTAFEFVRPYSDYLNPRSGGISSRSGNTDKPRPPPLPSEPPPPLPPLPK

Row | Compound | IC50 (CDK2/cyclin E) [nM] | IC50 (CDK4/cyclin D1) [nM] | IC50 (CDK6/cyclin D3) [nM] | IC50 [1] [nM] | IC50 ([2]; Homo sapiens, 144 h) [nM] | IC50 [3, 5] [nM] | IC50 ([4]; Homo sapiens, OVCAR-3, 144 h) [nM] | IC50 (CDK9/cyclin T1) [nM] | IC50 [2] [nM] | IC50 ([3]; column head MKN1, 6 days) [nM] | IC50 [4] [nM]
1 | CC(C)n1nnc2ccc3cnc(Nc4ccc(C(=O)N5CCN(C)[C@H](C)C5)cc4)nc3c21 [Example I-27, (R)-(3,4-Dimethylpiperazin-1-yl)(4-((1-isopropyl-1H-[1,2,3]triazolo[4,5-H]quinazolin-8-yl)amino)phenyl)metha none] | 2 | 5 | 14 | 6 | 186 | 32 | 69 |  |  |  | 
2 | CC(C)n1nnc2ccc3cnc(Nc4ccc(C(=O)N5CC[C@H](N)[C@H](O)C5)cc4)nc3c21 [Example I-14, ((3R,4S)-4-Amino-3-hydroxypiperidin-1-yl)(4-((1-isopropyl-1H-[1,2,3]triazolo[4,5-H]quinazolin-8-yl)amino)phenyl)metha none] | 2 | 2 | 39 | 11 | 424 | 66 | 102 |  |  |  | 
3 | CC(C)N1CCN(C(=O)c2ccc(Nc3ncc4ccc5nnn(C(C)C)c5c4n3)cc2)CC1 [Example I-30, (4-Isopropylpiperazin-1-yl)(4-((1-isopropyl-1H-[1,2,3]triazolo[4,5-H]quinazolin-8-yl)amino)phenyl)metha none] | 1 | 2 | 94 |  | 151 | 20 | 19 | 44 |  |  | 
4 | CC[C@H](Nc1nc(NCc2cnc(C)cc2C)c2ncn(C(C)C)c2n1)[C@@H](C)O [CYC-065 (Fadraciclib), reference compound] | 3 | 228 | > 1000 | 171 | 623 | 209 | 349 |  |  |  | 
5 | CC(C)n1nnc2ccc3cnc(Nc4ccc(C(=O)N5CCN(C)[C@@H](C)C5)cc4)nc3c21 [Example I-28, (S)-(3,4-Dimethylpiperazin-1-yl)(4-((1-isopropyl-1H-[1,2,3]triazolo[4,5-H]quinazolin-8-yl)amino)phenyl)metha none] | 2 | 2 | 18 | 9 | 174 | 42 | 59 |  |  |  | 
6 | CC(C)n1nnc2ccc3cnc(Nc4ccc(C(=O)N5CC[C@@H](C)[C@@H](N)C5)cc4)nc3c21 [Example I-12, ((3R,4R)-3-Amino-4-methylpiperidin-1-yl)(4-((1-isopropyl-1H-[1,2,3]triazolo[4,5-H]quinazolin-8-yl)amino)phenyl)metha none] | 1 | 3 | 18 | 6 | 84 | 30 | 26 |  |  |  | 
7 | (S)-(3-Aminopyrrolidin-1-yl)(4-(4-(difluoromethyl)-1-isopropyl-1H-[1,2,3]triazolo[4,5-H]quinazolin-8-yl)amino)phenyl)methanone [Example I-43] | 1 | 2 | 8 |  |  |  |  | 130 | 631 | 444 | 676

Continued by falling IC50 (CDK2/cyclin E), values first:

Row | IC50 (CDK2/cyclin E) [nM] | IC50 (CDK4/cyclin D1) [nM] | IC50 (CDK6/cyclin D3) [nM] | IC50 [1] [nM] | IC50 ([2]; Homo sapiens, 144 h) [nM] | IC50 [3, 5] [nM] | IC50 ([4]; Homo sapiens, OVCAR-3, 144 h) [nM] | IC50 (CDK9/cyclin T1) [nM] | IC50 [2] [nM] | IC50 ([3]; column head MKN1, 6 days) [nM] | IC50 [4] [nM] | Compound
8 | 1 | 4 | 19 |  | 436 | 41 | 45 | 16 |  |  |  | CC(C)n1nnc2ccc3cnc(Nc4ccc(C(=O)N5CCN(C)CC5)c(F)c4)nc3c21 [Example I-26, (2-Fluoro-4-((1-isopropyl-1H-[1,2,3]triazolo[4,5-H]quinazolin-8-yl)amino)phenyl)(4-methylpiperazin-1-yl)methanone]
9 | 0.8 | 4 | 29 | 4 | 330 | 252 | 156 |  |  |  |  | CC(C)n1nnc2ccc3cnc(Nc4ccc(C(=O)N5CC[C@@H](O)[C@H](N)C5)cc4)nc3c21 [Example I-13, ((3R,4R)-3-Amino-4-hydroxypiperidin-1-yl)(4-((1-isopropyl-1H-[1,2,3]triazolo[4,5-H]quinazolin-8-yl)amino)phenyl)metha none]
10 | 0.7 | 2 | 16 |  | 404 | 127 | 321 | 140 |  |  |  | CN[C@H]1CCN(C(=O)c2ccc(Nc3ncc4cc(C(F)F)c5nnn(C(C)C)c5c4n3)cc2)C1 [Example I-44, (S)-(4-((4-(difluoromethyl)-1-isopropyl-1H-[1,2,3]triazolo[4,5-H]quinazolin-8-yl)amino)phenyl)(3-(methylamino)pyrrolidin-1-yl)methanone]
11 | 0.06 | 1 | 4 |  | 7 | 3 | 6 | 2 |  |  |  | CN1CCCN(C(=O)c2ccc(Nc3ncc4ccc5nnn(C6CCCC6)c5c4n3)cc2)CC1 [Example I-42, (4-((1-Cyclopentyl-1H-[1,2,3]triazolo[4,5-H]quinazolin-8-yl)amino)phenyl)(4-methyl-1,4-diazepan-1-yl)methanone]
12 | 0.05 | 0.5 | 3 |  | 13 | 1 | 8 | 4 |  |  |  | N[C@H]1CCN(C(=O)c2ccc(Nc3ncc4ccc5nnn(C6CCCC6)c5c4n3)cc2)C1 [Example I-38, (S)-(3-Aminopyrrolidin-1-yl)(4-((1-cyclopentyl-1H-[1,2,3]triazolo[4,5-H]quinazolin-8-yl)amino)phenyl)methanone]
